Data: patent US20080090916A1, “Compounds for Treating Urinary Incontinence” (priority 2005, published 2008)

How the values were obtained:
Female land race pigs = experiment: In vivo pig urodynamic model (urodynamic and cardiovascular parameters)
Description: The animal model employed in this study was a slight modification of the previously described pig in vivo urodynamic model by Mills (1999). Surgical procedures were performed by Home Office personal licence holders. Female land race pigs of about 60 kg in weight were used for this study.
Pigs were initially sedated with ketamine hydrochloride 15 mg/kg (ketaset, Willows Francis Veterinary, Crawley, UK) and midazolam 0.2 mg/kg (Hypnovel, Roche Products Ltd, Welwyn Garden City, UK) through an intravenous central line. […] The induction phase of general anaesthesia was accomplished with 5% halothane (Fluothane, Astra ZenecaLtd, Macclesfield UK) in nitrous oxide 50%/oxygen 50%, delivered from an anaesthetic machine through a conical mask which was held over the snout of the pig. Following the induction phase, the maintenance phase of general anaesthesia was achieved using intravenous 1% propofol at the rate of 200 mg/hr.
At the start of surgery, the pig was initially placed in the left lateral position allowing access to the lumbar dorsal region. A stab incision for each catheter was made in the lumbar dorsal midline, as well as a single small right iliac fossa incision. Using a specially designed trocar, the peritoneal catheter and the proximal portions of the vesical catheters were tunneled from the dorsal lumbar incision to the right iliac fossa, such that the cuff at the proximal end finished in a small subcutaneous pocket. Each incision was approximated with two interrupted 2/0 nylon sutures, taking care to avoid occlusion of the catheters. The pig was then turned into a supine position and a lower abdominal incision made. Using a Spencer-Well forceps, the peritoneum and abdominal wall muscles were pierced from inside out and three catheters grabbed and pulled into the peritoneal cavity. The longer peritoneal catheter was placed in the vesico-vaginal pouch. Two purse-string sutures of 2/0 silk were placed in the apex of the bladder, and stab incisions made through the centre of each of these. The distal shorter halves of the vesical lines were introduced into the bladder through these incisions and the purse-strings tied, ensuring that the lumen of each catheter remained patent. Each side of the small pieces of silastic sheet on these catheters was sutured to the serosa of the bladder, in order to provide further security against subsequent line displacement. These distal portions of the two vesical catheters were then connected to the proximal portions using the nylon connectors. The abdominal wound was closed en masse with 1 nylon, followed by 2/0 chromic catgut to fat and interrupted 2/0 nylon to the skin. The right iliac fossa wound was closed in layers with vicryl to internal oblique and external oblique and interrupted 2/0 nylon to the skin. One of the vesical lines was attached to another piece of tubing externally and left on free drainage for 48 hours to allow the bladder to heal.
Following induction of anaesthesia, the animal was placed in a supine position and covered with a warm water blanket to maintain body temperature. A small incision was then made in the left groin area through which the left femoral artery was identified by palpation. The artery was then cannulated with an arterial […] cannulae (Abbocath-T, Abbott Ireland, and Sligo, Ireland) which was then connected to a pressure transducer for the measurement of arterial pressure. Vesico-urethral junction cystometry was obtained using a catheter mounted with a microtranducer (Gaeltec LTD, Isle of Skye). To cannulate the urethra, the vagina was opened with a speculum to expose the external urethral orifice which is high up in the anterior wall of the vagina. Having identified the external orifice the catheter was then inserted into the urethra by direct vision, thereafter it was gradually withdrawn until it was positioned in the vesico-urethral junction. […]

[1] = In vitro percutaneous absorption (skin permeation) of saturated solutions, modified Franz cell; format: in vitro ADME, human; details: dissolved in IPM/Pharmasolve 80:20 (v/v), compared with control solution
Description: For all experiments (one run with 9 cells) skin from one patient was used. The skin was excised full skin from surgery of the thigh, cleaned from adhering fat tissue, stored at −18° C. prior to use but not for longer than 6 months.
In vitro skin permeation investigation was performed as described in this Example.
The flux was calculated for every formulation by means of linear regression (performance with Excel software; regression coefficient to be >0.98) from the mean cumulative permeated amounts in μg/cm^2 during steady state against the time in hours. For test solution #1 the linear regression was calculated from 12-48 hours (not until 72 hours, because after 48 hours the permeation was decreasing). […] The lag-time (which was the time when steady state of permeation was starting after application) was taken from the intersection of the regression line with the time axis.
The transdermal delivery rate was assumed to be the same in vivo as it is in vitro (this must, of course, be proven by further kinetic studies). The patch size was set to 20 cm^2, which is middle sized (small patches are 5 cm^2; big patches are 60 cm^2) and the delivery rate was calculated daily (1 day=24 hours).
(flux rate steady state [μg/cm^2/h]×20 [cm^2]×24[h])/1000=delivery rate [mg/20 cm^2/24 h].

[2] = Solubility concentration of saturated solutions determined by HPLC; format: physicochemical
Description: The tightness of the cells and absence of air bubbles in the receptor phase was monitored and given at each sampling point.
So, from manufacturing of the solutions, the amount of the compound of formula (Ia) per solvent volume was known (documentation by balance print out). That amount was named a saturated solution. Afterwards the saturated solution was centrifuged and the solubility concentration of the clear supernatant of the solution was determined quantitatively by HPLC. The saturation factor was calculated from the ratio of saturated solution:solubility concentration. A high ratio represented a high level of infinite dose.

[3] = 1 mg/kg iv bolus, mean of three voiding cycles

enhancement factor for percutaneous absorption [1]: 13.84
saturation concentration in the acceptor medium ([2]; 0.9% NaCl 80%, PEG 400 20%, 0.1% NaN3): 130 mg/mL
solubility in Ethanol ([2]; Ethanol): high solubility
water solubility ([2]; water): high
solubility in both media ([2]; water and DMSO): high solubility
Compound: COc1ccc(OC)c([C@@H](O)[C@H](C)NC(=O)CC[C@H](N)C(=O)O)c1 [compound of formula (Ia), (S)-2-Amino-4-[(1S,2R)-2-(2,5-dimethoxyphenyl)-2-hydroxy-1-methyl-ethylcarbamoyl]butyric acid]
VUJ threshold pressure, greater than control runs (Female land race pigs; 1 mg/kg iv): about 31%
duration of voiding, change from control (Female land race pigs; 1 mg/kg iv): 4.1%
fall in deutrusor voiding pressure from the control runs (Female land race pigs; 1 mg/kg iv): 36.5%
flow rate, change from control (Female land race pigs; 1 mg/kg iv): 2.4%
voiding intervals, change from control (Female land race pigs; 1 mg/kg iv): −4.7%
deutrusor voiding pressure (Female land race pigs; [3]): 28±10.11 cmH2O
intravesical threshold voiding pressure (Female land race pigs; [3]): 16.23±1.16 cmH2O
voiding pressure during the voiding phase (Female land race pigs; [3]): 41.1±8.3 cmH2O
bladder intravesical baseline pressure (Female land race pigs; 1 mg/kg iv bolus, mean of three voiding cycles, one animal): 8.53±0.34 cmH2O
reduction in residual volume (Female land race pigs; 1 mg/kg iv, versus control): 31%
rise in the threshold VUJ voiding pressure (Female land race pigs; 1 mg/kg iv, versus control): 15%
VUJ baseline pressure (Female land race pigs; 1 mg/kg iv, versus control runs): transient rise
arterial pressure, change from the control (Female land race pigs; 1 mg/kg iv, arterial line flushed after dosing): 15%
voiding efficiency (Female land race pigs; 1 mg/kg iv, voided volume as percentage of bladder capacity): 95%
